In brackets after ≈: the same amount, converted by molar mass. Like-named read-outs stand apart in the source and are kept apart here.
Legend:
Type in all cases: cell-based
[1] = test system: Staphylococcus aureus 209p; assay: Minimal inhibitory concentration; details: for MIC: read-out: Minimal inhibitory concentration
Excerpt: (§1) Minimal inhibitory concentrations of various microorganisms mcg/ml
1 A Staphylococcus aureus 209p

[2] = test system: Staphylococcus aureus (CP and PC resistant); assay: Minimal inhibitory concentration; details: I B: Staphylococcus aureus (CP and PC resistant)
Excerpt: as §1
1 B Staphylococcus aureus

E. coli NIHJ = assay: Minimal inhibitory concentration; details: II A: E. coli NIHJ; for MIC: Escherichia coli
Excerpt: as §1

Proteus vulgaris = assay: Minimal inhibitory concentration; details: for MIC: read-out: Minimal inhibitory concentration
Excerpt: as §1

[3] = test system: E. coli 609 (CER resistant); assay: Minimal inhibitory concentration; details: for MIC: Escherichia coli, read-out: Minimal inhibitory concentration
Excerpt: as §1
II B E. coli 609 (CER resistant)

[4] = test system: Shigella flexneri Komagome; assay: Minimal inhibitory concentration; details: III: Shigella flexneri Komagome; for MIC: read-out: Minimal inhibitory concentration
Excerpt: as §1
III Shigella flexneri Komagome

Klebsiella neumoniae 806 = assay: Minimal inhibitory concentration
Excerpt: as §1
IV A Klebsiella neumoniae 806

[5] = test system: Klebsiella neumoniae 846 (CER resistant); assay: Minimal inhibitory concentration; details: IV B: Klebsiella neumoniae 846 (CER resistant)
Excerpt: as §1
IV B Klebsiella neumoniae 846 (CER resistant)

[6] = test system: Salmonella enteritidis Gaertner; assay: Minimal inhibitory concentration; details: for MIC: Salmonella enterica, read-out: Minimal inhibitory concentration
Excerpt: as §1
VI Salmonella enteritidis Gaertner

[7] = test system: broad pathogenic microorganisms; assay: antimicrobial activity; details: result in words
[8] = I A: Staphylococcus aureus 209p
[9] = IV A: Klebsiella neumoniae 806, read-out: Minimal inhibitory concentration
[10] = VI: Salmonella enteritidis Gaertner
[11] = II B: E. coli 609 (CER resistant)

Row | SMILES | MIC [1, 8] [µg/mL] | MIC [2] [µg/mL] | MIC (E. coli NIHJ) [µg/mL] | MIC (Proteus vulgaris; V: Proteus vulgaris) [µg/mL] | MIC [4] [µg/mL] | MIC (Klebsiella neumoniae 806; [9]) [µg/mL] | MIC [5] [µg/mL] | MIC [6, 10] [µg/mL] | antimicrobial activity against broad pathogenic microorganisms [7] | MIC [3, 11] [µg/mL] | also measured
1 | CO[C@@]1(NC(=O)CSc2nnc[nH]2)C(=O)N2C(C(=O)O)=C(COC(N)=O)CS[C@@H]21 [7β-(1,2,4-triazol-4H-3-yl)thioacetamido-7α-methoxy-3-carbamoyloxymethyl-3-cephem-4-carboxylic acid] | 1.5 (≈ 3.37 µM) | 6.2 (≈ 13.9 µM) | 6.2 (≈ 13.9 µM) | 25 (≈ 56.2 µM) | 12.5 (≈ 28.1 µM) | 6.2 (≈ 13.9 µM) | > 400 | 6.2 (≈ 13.9 µM) | excellent antimicrobial activity | – | MIC [3]: 12.5 µg/mL (≈ 28.1 µM)
2 | CO[C@@]1(NC(=O)CSc2nncs2)C(=O)N2C(C(=O)O)=C(CSc3nnnn3C)CS[C@@H]21 [7β-(1,3,4-thiadiazol-2-yl)thioacetamido-7α-methoxy-3-(1-methyl-1H-tetrazol-5-yl)thiomethyl-3-cephem-4-carboxylic acid] | 0.4 (≈ 0.774 µM) | 0.8 (≈ 1.55 µM) | 1.5 (≈ 2.9 µM) | 3.1 (≈ 6 µM) | 1.5 (≈ 2.9 µM) | 1.5 (≈ 2.9 µM) | > 200 | 0.8 (≈ 1.55 µM) | excellent antimicrobial activity | 1.5 (≈ 2.9 µM) | –
3 | CO[C@@]1(NC(=O)CSc2nncs2)C(=O)N2C(C(=O)O)=C(COC(C)=O)CS[C@@H]21 [7β-(1,3,4-thiadiazol-2-yl)thioacetamido-7α-methoxy-3-acetoxymethyl-3-cephem-4-carboxylic acid] | 0.8 (≈ 1.74 µM) | 1.5 (≈ 3.26 µM) | 3.1 (≈ 6.73 µM) | 6.2 (≈ 13.5 µM) | 6.2 (≈ 13.5 µM) | 3.1 (≈ 6.73 µM) | > 400 | 3.4 (≈ 7.38 µM) | excellent antimicrobial activity | 6.2 (≈ 13.5 µM) | –
4 | CO[C@@]1(NC(=O)CSc2nncs2)C(=O)N2C(C(=O)O)=C(COC(N)=O)CS[C@@H]21 [7β-(1,3,4-thiadiazol-2-yl)thioacetamido-7α-methoxy-3-carbamoyloxymethyl-3-cephem-4-carboxylic acid] | 0.4 (≈ 0.867 µM) | 1.5 (≈ 3.25 µM) | 3.1 (≈ 6.72 µM) | 6.2 (≈ 13.4 µM) | 3.1 (≈ 6.72 µM) | 3.1 (≈ 6.72 µM) | > 400 | 1.5 (≈ 3.25 µM) | excellent antimicrobial activity | 3.1 (≈ 6.72 µM) | –
5 | CO[C@@]1(NC(=O)CSc2ccon2)C(=O)N2C(C(=O)O)=C(COC(C)=O)CS[C@@H]21 [7β-(3-isoxazolyl)thioacetamido-7α-methoxy-3-acetoxymethyl-3-cephem-4-carboxylic acid] | 0.2 (≈ 0.451 µM) | 0.8 (≈ 1.8 µM) | 3.1 (≈ 6.99 µM) | 3.1 (≈ 6.99 µM) | 6.2 (≈ 14 µM) | 3.1 (≈ 6.99 µM) | > 400 | 1.5 (≈ 3.38 µM) | excellent antimicrobial activity | 6.2 (≈ 14 µM) | –
6 | CO[C@@]1(NC(=O)COc2ccon2)C(=O)N2C(C(=O)O)=C(CSc3nnnn3C)CS[C@@H]21 [7β-(3-isoxazolyloxy)acetamido-7α-methoxy-3-(1-methyl-1H-tetrazol-5-yl)thiomethyl-3-cephem-4-carboxylic acid] | – | – | – | – | – | – | – | – | excellent antimicrobial activity | – | Minimal inhibitory concentration [1, 8]: 0.2 µg/mL (≈ 0.414 µM); Minimal inhibitory concentration [2]: 0.8 µg/mL (≈ 1.65 µM); Minimal inhibitory concentration (E. coli NIHJ): 3.1 µg/mL (≈ 6.41 µM); Minimal inhibitory concentration (Proteus vulgaris; V: Proteus vulgaris): 6.2 µg/mL (≈ 12.8 µM); Minimal inhibitory concentration [3, 11]: 3.1 µg/mL (≈ 6.41 µM); Minimal inhibitory concentration [4]: 3.1 µg/mL (≈ 6.41 µM); Minimal inhibitory concentration (Klebsiella neumoniae 806; IV A: Klebsiella neumoniae 806): 3.1 µg/mL (≈ 6.41 µM); Minimal inhibitory concentration [5]: > 400 µg/mL; Minimal inhibitory concentration [6, 10]: 1.5 µg/mL (≈ 3.1 µM)
7 | CO[C@@]1(NC(=O)COc2ccon2)C(=O)N2C(C(=O)O)=C(COC(C)=O)CS[C@@H]21 [7β-(3-isoxazolyloxy)acetamido-7α-methoxy-3-acetoxymethyl-3-cephem-4-carboxylic acid] | ≤ 0.1 | 0.8 (≈ 1.87 µM) | 6.2 (≈ 14.5 µM) | – | 12.5 (≈ 29.2 µM) | 6.2 (≈ 14.5 µM) | > 400 | 3.1 (≈ 7.25 µM) | excellent antimicrobial activity | 6.2 (≈ 14.5 µM) | MIC (Proteus vulgaris; Proteus vulgaris): 12.5 µg/mL (≈ 29.2 µM)
8 | CO[C@@]1(NC(=O)CSc2nnc(C)s2)C(=O)N2C(C(=O)O)=C(CSc3nnnn3C)CS[C@@H]21 [7β-(5-methyl-1,3,4-thiadiazol-2-yl)thioacetamido-7α-methoxy-3-(1-methyl-1H-tetrazol-5-yl)thiomethyl-3-cephem-4-carboxylic acid] | 0.4 (≈ 0.754 µM) | 1.5 (≈ 2.83 µM) | 12.5 (≈ 23.6 µM) | 3.1 (≈ 5.84 µM) | 6.2 (≈ 11.7 µM) | 12.5 (≈ 23.6 µM) | 400 (≈ 754 µM) | 1.5 (≈ 2.83 µM) | excellent antimicrobial activity | 12.5 (≈ 23.6 µM) | –
9 | CO[C@@]1(NC(=O)CSc2nnc(C)s2)C(=O)N2C(C(=O)O)=C(COC(N)=O)CS[C@@H]21 [7β-(5-methyl-1,3,4-thiadiazol-2-yl)thioacetamido-7α-methoxy-3-carbamoyloxymethyl-3-cephem-4-carboxylic acid] | 0.8 (≈ 1.68 µM) | 3.1 (≈ 6.52 µM) | 6.2 (≈ 13 µM) | 6.2 (≈ 13 µM) | 12.5 (≈ 26.3 µM) | 6.2 (≈ 13 µM) | > 200 | 3.1 (≈ 6.52 µM) | excellent antimicrobial activity | 6.2 (≈ 13 µM) | –
10 | CO[C@@]1(NC(=O)CSc2ncc[nH]2)C(=O)N2C(C(=O)O)=C(CSc3nnnn3C)CS[C@@H]21 [7β-(imidazol-2-yl)thioacetamido-7α-methoxy-3-(1-methyl-1H-tetrazol-5-yl)thiomethyl-3-cephem-4-carboxylic acid] | 0.8 (≈ 1.6 µM) | 3.1 (≈ 6.22 µM) | 6.2 (≈ 12.4 µM) | 12.5 (≈ 25.1 µM) | 6.2 (≈ 12.4 µM) | 6.2 (≈ 12.4 µM) | > 200 | 3.1 (≈ 6.22 µM) | excellent antimicrobial activity | 6.2 (≈ 12.4 µM) | –
11 | CO[C@@]1(NC(=O)CSc2ncc[nH]2)C(=O)N2C(C(=O)O)=C(COC(C)=O)CS[C@@H]21 [7β-(imidazol-2-yl)thioacetamido-7α-methoxy-3-acetoxymethyl-3-cephem-4-carboxylic acid] | 1.5 (≈ 3.39 µM) | 6.2 (≈ 14 µM) | 12.5 (≈ 28.3 µM) | 25 (≈ 56.5 µM) | 25 (≈ 56.5 µM) | 12.5 (≈ 28.3 µM) | > 400 | 6.2 (≈ 14 µM) | excellent antimicrobial activity | 25 (≈ 56.5 µM) | –
12 | CO[C@@]1(NC(=O)CSc2ncc[nH]2)C(=O)N2C(C(=O)O)=C(COC(N)=O)CS[C@@H]21 [7β-(imidazol-2-yl)thioacetamido-7α-methoxy-3-carbamoyloxymethyl-3-cephem-4-carboxylic acid] | ≤ 0.1 | 0.8 (≈ 1.8 µM) | 1.5 (≈ 3.38 µM) | 6.2 (≈ 14 µM) | 3.1 (≈ 6.99 µM) | 3.1 (≈ 6.99 µM) | > 200 | 1.5 (≈ 3.38 µM) | excellent antimicrobial activity | 3.1 (≈ 6.99 µM) | –
13 | CO[C@@]1(NC(=O)CSCC#N)C(=O)N2C(C(=O)O)=C(CSc3nnnn3C)CS[C@@H]21 [7β-cyanomethylthioacetamido-7α-methoxy-3-(1-methyl-1H-tetrazol-5-yl)thiomethyl-3-cephem-4-carboxylic acid] | – | 0.8 (≈ 1.7 µM) | – | – | 0.8 (≈ 1.7 µM) | – | > 200 | – | excellent antimicrobial activity | 0.8 (≈ 1.7 µM) | MIC ([1]; Staphylococcus aureus, 209P): 0.2 µg/mL (≈ 0.424 µM); MIC (Proteus vulgaris; Proteus vulgaris): 1.5 µg/mL (≈ 3.18 µM); MIC (Klebsiella neumoniae 806; Klebsiella, 806, read-out: Minimal inhibitory concentration): 0.8 µg/mL (≈ 1.7 µM); MIC ([6]; ENTERITIDIS): 0.2 µg/mL (≈ 0.424 µM)
